In article PMC5077133, “Towards Development of Small Molecule Lipid II Inhibitors as Novel Antibiotics” (PLoS ONE, 2016):

Columns and labels:
E. cloacae ATCC 13047 = assay: Antibacterial activity (MIC, broth dilution); assay type: cell-based; conditions: CLSI
Experimental: (§1) Determination of the Minimal Inhibitory Concentrations (MIC) by dilution was carried out by broth dilution according to CLSI standards.

E. aerogenes ATCC 13048 = assay: Antibacterial activity (MIC, broth dilution); assay type: cell-based; conditions: CLSI
Experimental: as §1

P. aeruginosa ATCC 27853 = assay: Antibacterial activity (MIC, broth dilution); assay type: cell-based; conditions: CLSI
Experimental: as §1

P. aeruginosa PA01 = assay: Antibacterial activity (MIC, broth dilution); assay type: cell-based; conditions: CLSI
Experimental: as §1

E. faecium F118 (VRE) = assay: Antibacterial activity (MIC, broth dilution); assay type: cell-based; conditions: CLSI, in µg/mL
Experimental: as §1

[1] = system: K. pneumoniae NR-15411 (KPC); assay: Antibacterial activity (MIC, broth dilution); assay type: cell-based; conditions: CLSI
Experimental: as §1

[2] = system: S. aureus HFH-30123 (MRSA); assay: Antibacterial activity (MIC, broth dilution); assay type: cell-based; conditions: CLSI
Experimental: as §1

E. faecium EF1509 (VRE) = assay: Antibacterial activity (MIC, broth dilution); assay type: cell-based; conditions: CLSI, in µg/mL
Experimental: as §1

S. aureus MRSA 1094 = assay: Antibacterial activity (MIC, broth dilution); assay type: cell-based; conditions: CLSI
Experimental: as §1

[3] = system: K. pneumoniae NR-15410 (KPC); assay: Antibacterial activity (MIC, broth dilution); assay type: cell-based; conditions: CLSI
Experimental: as §1

P. aeruginosa X13273 = assay: Antibacterial activity (MIC, broth dilution); assay type: cell-based; conditions: CLSI, in µg/mL
Experimental: as §1

[4] = Lipid II binding by Surface Plasmon Resonance; conditions: SPR, immobilized 3-Lipid II, 25°C
Experimental: Short-chain water-soluble Lipid II containing a lipid tail of three isoprene units was generated and purified essentially as described. Typically, M. flavus vesicles (120 μmol lipid-Pi) were incubated together with 500 μmol UDP-GlcNAc, 500 μmol UDP-MurNAC-pentapeptide and 400 μmol farnesyl phosphate in 100 mM Tris-HCl pH 8.0, 5 mM MgCl2. The incubation lasted two hours at room temperature for 3-P. The synthesis of 3-Lipid II was followed using RP-8 reversed phase TLC (Merck) developed in 75% methanol. For purification, the membranes were removed by centrifugation at 40,000 x g and the supernatant was collected and loaded on a C18 HPLC column and eluted with a linear gradient from 50 mM ammonium bicarbonate to 100% methanol in 30 minutes. Farnesyl-Lipid II (3-Lipid II) eluted at approximately 60% methanol. Its identity was confirmed by mass spectroscopy. Surface Plasmon Resonance binding experiments were carried out on a BIAcore T100 system (BIAcore Inc., Piscataway, NY) at 25°C. The assay buffer was 10 mM HEPES, 150 mM NaCl, 0.05% surfactant P20, pH 7.4 (± 3 mM EDTA) supplemented with 10% DMSO. 3-Lipid II (50 RUs) was immobilized on CM5 sensor chips using the amine-coupling chemistry recommended by the manufacturer. For initial determination of binding, compounds were introduced into the flow-cells (30 μl/min) in the running buffer at 10 μM. Resonance signals were corrected for nonspecific binding by subtracting the background of the control flow-cell. After each analysis, the sensor chip surfaces were regenerated with 50 mM NaOH for 30 s at a flow rate 100 μl/min, and equilibrated with the buffer prior to next injection. For binding kinetics studies, binding isotherms were analyzed with manufacturer-supplied software for BIAcore T100.

A. baumanii ATCC 19606 = assay: Antibacterial activity (MIC, broth dilution); assay type: cell-based, Acinetobacter baumanii; conditions: CLSI, in µg/mL
Excerpt: Staphylococcus aureus ATCC 29213, Escherichia coli ATCC 25922, Enterococcus faecalis ATCC 29212, Streptococcus pneumonia ATCC 49619 and Acinetobacter baumanii ATCC 19606 were obtained from Microbiologics (St. Cloud, MN). E. faecalis ATCC 51575, ATCC 51299 and REMEL C99707 and E. faecium ATCC 51559 (MDR), REMEL IH79985 and REMEL C110914 were generously provided by the Laboratory of Pathology, University of Maryland Baltimore School of Medicine. Unless stated otherwise, chemicals and reagents were purchased from Sigma.
as §1

HeLa cells = assay: Cytotoxicity against mammalian cells (MTS assay); assay type: cell-based
Experimental: The cytotoxicity concentration of antibacterial compounds that produces half maximal decrease in viability (CC50) against mammalian cells (HeLa, ATCC CCL-2.2) was determined as described. The effect of compounds on HeLa cell viability was assessed in triplicate by measuring the mitochondrial activity using MTS assays according to the manufacturer’s instructions (Cell Titer 96 proliferation assay, Promega). The cells were incubated for 72 hours in RPMI1640 medium containing the compounds at final concentrations ranging from 64 to 0.125 μg/ml. CC50 was determined using a standard curve of serially diluted untreated cells in each experiment.

Row | Structure (SMILES) | Antibacterial activity (MIC) E. cloacae ATCC 13047 (E. cloacae ATCC 13047) | Antibacterial activity (MIC) E. aerogenes ATCC 13048 (E. aerogenes ATCC 13048) | Antibacterial activity (MIC) P. aeruginosa ATCC 27853 (P. aeruginosa ATCC 27853) | Antibacterial activity (MIC) P. aeruginosa PA01 (P. aeruginosa PA01) | Antibacterial activity (MIC) E. faecium F118 (VRE) (E. faecium F118 (VRE)) | Antibacterial activity (MIC) K. pneumoniae NR-15411 (KPC) [1] | Antibacterial activity (MIC) S. aureus HFH-30123 (MRSA) [2] | Antibacterial activity (MIC) E. faecium EF1509 (VRE) (E. faecium EF1509 (VRE)) | Antibacterial activity (MIC) S. aureus MRSA 1094 (S. aureus MRSA 1094) | Antibacterial activity (MIC) K. pneumoniae NR-15410 (KPC) [3] | Antibacterial activity (MIC) P. aeruginosa X13273 (P. aeruginosa X13273) | Kd [4] | Antibacterial activity (MIC) A. baumanii ATCC 19606 (A. baumanii ATCC 19606) | Lipid II binding Kd [4] | CC50% (72 h HeLa cells) (HeLa cells)
1 | CN(C)c1ccc(/C=C/C=C/c2cc(-c3ccc(Cl)cc3)cc(-c3ccc(Cl)cc3)[o+]2)cc1.F[B-](F)(F)F [6jc43-2] | ≥ 64 µg/mL | ≥ 64 µg/mL | ≥ 64 µg/mL | ≥ 64 µg/mL | >=64 | ≥ 64 µg/mL | ≥ 64 µg/mL | 64 | ≥ 64 µg/mL | ≥ 64 µg/mL | >=64 | – | >=64 | – | >32
2 | Cc1cc(/C=C/C=C/c2ccc(N(C)C)cc2)cc(C)[o+]1.F[B-](F)(F)F [6jc38] | ≥ 64 µg/mL | ≥ 64 µg/mL | ≥ 64 µg/mL | ≥ 64 µg/mL | >=64 | ≥ 64 µg/mL | ≥ 64 µg/mL | >=64 | 64 µg/mL | ≥ 64 µg/mL | >=64 | – | >=64 | No | >32
3 | Cc1ccc(-c2cc(/C=C/c3c[nH]c4ccccc34)[o+]c(-c3ccc(C)cc3)c2)cc1.F[B-](F)(F)F [6jc-53-2] | ≥ 64 µg/mL | ≥ 64 µg/mL | ≥ 64 µg/mL | ≥ 64 µg/mL | 5.657 | ≥ 64 µg/mL | 4 µg/mL | 8 | 2 µg/mL | ≥ 64 µg/mL | >=64 | 10 ± 3 µM | >=64 | – | 1.12
4 | Cc1ccc(-c2cc(/C=C/c3c[nH]c4ccccc34)[o+]c(-c3ccc(C)c(C)c3)c2)cc1C.F[B-](F)(F)F [6jc-59-3] | ≥ 64 µg/mL | ≥ 64 µg/mL | ≥ 64 µg/mL | ≥ 64 µg/mL | 8 | ≥ 64 µg/mL | 4 µg/mL | 5.657 | 4 µg/mL | ≥ 64 µg/mL | >=64 | 27.9 ± 3 µM | >=64 | – | 1.35
5 | CCc1ccc(-c2cc(/C=C/c3ccc(N(C)C)cc3)[o+]c(-c3ccc(CC)cc3)c2)cc1.F[B-](F)(F)F [6jc64-1] | ≥ 64 µg/mL | ≥ 64 µg/mL | ≥ 64 µg/mL | ≥ 64 µg/mL | 5.66 | ≥ 64 µg/mL | 4 µg/mL | 4 | 4 µg/mL | ≥ 64 µg/mL | >=64 | – | 16 | – | <.78125

Continued by falling Kd [4], values first:

Row | Antibacterial activity (MIC) E. cloacae ATCC 13047 (E. cloacae ATCC 13047) | Antibacterial activity (MIC) E. aerogenes ATCC 13048 (E. aerogenes ATCC 13048) | Antibacterial activity (MIC) P. aeruginosa ATCC 27853 (P. aeruginosa ATCC 27853) | Antibacterial activity (MIC) P. aeruginosa PA01 (P. aeruginosa PA01) | Antibacterial activity (MIC) E. faecium F118 (VRE) (E. faecium F118 (VRE)) | Antibacterial activity (MIC) K. pneumoniae NR-15411 (KPC) [1] | Antibacterial activity (MIC) S. aureus HFH-30123 (MRSA) [2] | Antibacterial activity (MIC) E. faecium EF1509 (VRE) (E. faecium EF1509 (VRE)) | Antibacterial activity (MIC) S. aureus MRSA 1094 (S. aureus MRSA 1094) | Antibacterial activity (MIC) K. pneumoniae NR-15410 (KPC) [3] | Antibacterial activity (MIC) P. aeruginosa X13273 (P. aeruginosa X13273) | Kd [4] | Antibacterial activity (MIC) A. baumanii ATCC 19606 (A. baumanii ATCC 19606) | Lipid II binding Kd [4] | Structure (SMILES) | CC50% (72 h HeLa cells) (HeLa cells)
6 | ≥ 64 µg/mL | ≥ 64 µg/mL | ≥ 64 µg/mL | ≥ 64 µg/mL | 4 | ≥ 64 µg/mL | 2 µg/mL | 2 | 2 µg/mL | 64 µg/mL | >=64 | 27.9 ± 2 µM | 64 | – | Cc1ccc(-c2cc(/C=C/c3cn(C)c4ccccc34)[o+]c(-c3ccc(C)c(C)c3)c2)cc1C.F[B-](F)(F)F [6jc66-4] | 0.92
7 | 64 µg/mL | 32 µg/mL | 64 µg/mL | 64 µg/mL | 4 | 64 µg/mL | 2 µg/mL | 4 | 1.41 µg/mL | 45.3 µg/mL | 32 | 17 ± 4 µM | 8 | – | C(=C\c1cc(-c2ccccc2)cc(-c2ccccc2)[o+]1)/c1cc2c3c(c1)CCCN3CCC2.F[B-](F)(F)F [6jc-58] | <.78125
8 | ≥ 64 µg/mL | ≥ 64 µg/mL | ≥ 64 µg/mL | ≥ 64 µg/mL | 2 | ≥ 64 µg/mL | 4 µg/mL | 0.5 | 2 µg/mL | 64 µg/mL | >=64 | 9.5 ± 2 µM | 32 | – | Cc1ccc(-c2cc(/C=C/C=C/c3ccc(N(C)C)cc3)[o+]c(-c3ccc(C)cc3)c2)cc1.F[B-](F)(F)F [6jc51-2] | <.78125
9 | 64 µg/mL | 64 µg/mL | – | 64 µg/mL | 2 | 64 µg/mL | 2 µg/mL | 0.5 | 1 µg/mL | 16 µg/mL | 45.25 | 9.2 ± 2 µM | 8 | – | Cc1ccc(-c2cc(/C=C/c3ccc(N(C)C)cc3)[o+]c(-c3ccc(C)cc3)c2)cc1.F[B-](F)(F)F [6jc51-1] | <.78125
10 | ≥ 64 µg/mL | ≥ 64 µg/mL | ≥ 64 µg/mL | ≥ 64 µg/mL | 4 | ≥ 64 µg/mL | 2 µg/mL | 4 | 2 µg/mL | ≥ 64 µg/mL | >=64 | 1.9 ± 0.3 µM | >=64 | – | Cc1ccc(-c2cc(/C=C/c3ccc(N(C)C)cc3)[o+]c(-c3ccc(C)c(C)c3)c2)cc1C.F[B-](F)(F)F [6jc-59-1] | <.78125
